Source: ChEMBL document CHEMBL5233229, “Recent advances in the development of ubiquitin-specific-processing protease 7 (USP7) inhibitors” (Eur J Med Chem, 2020)

Molecular target: T1, Ubiquitin carboxyl-terminal hydrolase 7 (Homo sapiens, UniProt Q93009)
Experiment: Inhibition of human USP7 using Ub-AMC as substrate

T1 sequence (Q93009 whole entry): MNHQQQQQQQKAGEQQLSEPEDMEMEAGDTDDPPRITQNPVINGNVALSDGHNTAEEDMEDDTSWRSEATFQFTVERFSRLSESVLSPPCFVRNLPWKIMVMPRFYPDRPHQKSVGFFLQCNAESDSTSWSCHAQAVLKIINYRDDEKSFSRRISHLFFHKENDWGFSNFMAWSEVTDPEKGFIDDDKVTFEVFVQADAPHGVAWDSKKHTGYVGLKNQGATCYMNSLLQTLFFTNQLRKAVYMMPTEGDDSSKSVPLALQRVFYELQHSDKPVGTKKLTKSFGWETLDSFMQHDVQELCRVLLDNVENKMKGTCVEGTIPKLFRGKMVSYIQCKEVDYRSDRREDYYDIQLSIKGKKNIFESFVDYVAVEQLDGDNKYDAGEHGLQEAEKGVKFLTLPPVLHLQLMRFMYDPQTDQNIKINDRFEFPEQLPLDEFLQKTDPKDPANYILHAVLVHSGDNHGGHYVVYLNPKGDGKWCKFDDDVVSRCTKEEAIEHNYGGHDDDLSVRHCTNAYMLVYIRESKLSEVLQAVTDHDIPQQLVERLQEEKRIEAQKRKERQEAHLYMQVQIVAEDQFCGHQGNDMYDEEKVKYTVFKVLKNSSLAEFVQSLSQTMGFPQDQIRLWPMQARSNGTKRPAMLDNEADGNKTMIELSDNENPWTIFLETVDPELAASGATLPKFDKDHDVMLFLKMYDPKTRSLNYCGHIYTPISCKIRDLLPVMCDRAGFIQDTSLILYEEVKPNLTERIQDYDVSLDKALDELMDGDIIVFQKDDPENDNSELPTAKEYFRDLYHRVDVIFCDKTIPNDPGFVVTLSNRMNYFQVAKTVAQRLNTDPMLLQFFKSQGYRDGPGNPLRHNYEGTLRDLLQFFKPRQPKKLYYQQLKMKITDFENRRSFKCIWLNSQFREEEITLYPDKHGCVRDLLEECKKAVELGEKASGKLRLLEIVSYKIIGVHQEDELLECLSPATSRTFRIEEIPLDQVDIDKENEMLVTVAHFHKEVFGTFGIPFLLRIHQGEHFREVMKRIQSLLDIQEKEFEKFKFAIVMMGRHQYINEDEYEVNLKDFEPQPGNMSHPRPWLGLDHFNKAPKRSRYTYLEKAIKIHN

`CC(=O)N1CCC(O)(Cn2cnc3cc(Cl)ccc3c2=O)CC1` and `O=C(Cc1ccccc1)N1CCC(O)(Cn2cnc3cc(Cl)ccc3c2=O)CC1` cannot be ordered by IC50: > 100 µM for the first, > 100 µM for the second.

First: C[C@H](CC(=O)N1CCC(O)(Cn2cnc3cc(Cl)ccc3c2=O)CC1)c1ccccc1
Second: C[C@@H](CC(=O)N1CCC(O)(Cn2cnc3cc(Cl)ccc3c2=O)CC1)c1ccccc1
The IC50 of the first is 95-fold lower: 0.42 µM for the first, 40 µM for the second.

In the case of `N#CC1(Cn2cnc3cc(Cl)ccc3c2=O)CCN(C(=O)CCc2ccccc2)CC1`, the IC50 is reported as > 100 µM.

Molecular target: T1, Ubiquitin carboxyl-terminal hydrolase 7
Experiment: Inhibition of human USP7 using ubiquitin-Rh110 as substrate incubated for 23 to 45 mins by fluorescence based assay

`COc1ccc(-c2cccc(C(=O)N3CCC(O)(Cn4cnn5cccc5c4=O)CC3)c2)cc1` and `Cc1ccc(-c2cccc(C(=O)N3CCC(O)(Cn4cnn5cccc5c4=O)CC3)c2)cc1` are the same in IC50: 1 µM for the first, 1 µM for the second.

Compared with `Cc1ccc2c(=O)n(CC3(O)CCN(C(=O)C(C)Cc4ccccc4)CC3)cnn12` (centres undefined), `Cc1ccc2c(=O)n(CC3(O)CCN(C(=O)CC(C)c4ccccc4)CC3)cnn12` (centres undefined) is lower in IC50: 1 µM for the first, < 1 µM for the second. The second is the more potent here.

`Cc1ccc2cc(-c3ccc(C(=O)N4CCC(O)(Cn5cnn6cccc6c5=O)CC4)cc3)ccc2n1` and `O=C(c1ccc(-c2ccc3ncccc3c2)cc1)N1CCC(O)(Cn2cnn3cccc3c2=O)CC1` are the same in IC50: 1 µM for the first, 1 µM for the second.

`O=C(c1ccc(-c2cnc3ccccc3c2)cc1)N1CCC(O)(Cn2cnn3cccc3c2=O)CC1` and `O=C(c1cccc(-c2ccc3ncccc3c2)c1)N1CCC(O)(Cn2cnn3cccc3c2=O)CC1` are the same in IC50: 1 µM for the first, 1 µM for the second.

`O=C(Nc1cc2c(=O)n(CC3(O)CCN(C(=O)C4CC4)CC3)cnn2c1)c1csc(-c2ccccc2)n1` and `O=C(COc1cccc(Cl)c1Cl)Nc1cc2c(=O)n(CC3(O)CCN(C(=O)C4CC4)CC3)cnn2c1` are the same in IC50: 1 µM for the first, 1 µM for the second.

`CC(CC(=O)N1CCC(O)(Cn2cnn3cc(Cl)cc3c2=O)CC1)c1ccccc1` (centres undefined) and `Cc1cc2c(=O)n(CC3(O)CCN(C(=O)CC(C)c4ccccc4)CC3)cnn2c1` (centres undefined) are the same in IC50: 1 µM for the first, 1 µM for the second.

`O=C(c1cccc(-c2ccccc2)c1)N1CCC(O)(Cn2cnn3cccc3c2=O)CC1` and `O=C(c1cccc(-c2cccc(F)c2)c1)N1CCC(O)(Cn2cnn3cccc3c2=O)CC1` are the same in IC50: 1 µM for the first, 1 µM for the second.

`O=C(c1cccc(-c2ccc3c(c2)OCO3)c1)N1CCC(O)(Cn2cnn3cccc3c2=O)CC1` and `O=C(c1cccc(-c2cccc(Cl)c2)c1)N1CCC(O)(Cn2cnn3cccc3c2=O)CC1` are the same in IC50: 1 µM for the first, 1 µM for the second.

`CCC(Cc1ccccc1)C(=O)N1CCC(O)(Cn2cnn3cccc3c2=O)CC1` (centres undefined) and `CC(C)(C)C(Cc1ccccc1)C(=O)N1CCC(O)(Cn2cnn3cccc3c2=O)CC1` (centres undefined) are the same in IC50: 1 µM for the first, 1 µM for the second.

`Cc1ccc(-c2ncc3c(=O)n(CC4(O)CCN(C(=O)C[C@H](C)n5cccn5)CC4)cnn23)cc1` and `Cc1ccc(-c2ncc3c(=O)n(CC4(O)CCN(C(=O)CC(C)n5cccn5)CC4)cnn23)cc1` (centres undefined) are the same in IC50: 1 µM for the first, 1 µM for the second.

`Cc1cc(C)n(Cc2ccc(C(=O)N3CCC(O)(Cn4cnn5cccc5c4=O)CC3)cc2)n1` and `Cc1cc(C(F)(F)F)nn1Cc1ccc(C(=O)N2CCC(O)(Cn3cnn4cccc4c3=O)CC2)cc1` are the same in IC50: 1 µM for the first, 1 µM for the second.

`O=C(c1ccc(-n2cccn2)cc1)N1CCC(O)(Cn2cnn3c(-c4ccc(F)cc4)ncc3c2=O)CC1` and `O=C(c1ccc(F)cc1)N1CCC(O)(Cn2cnn3c(-c4ccc(F)cc4)ncc3c2=O)CC1` are the same in IC50: 1 µM for the first, 1 µM for the second.

`O=C(c1ccc(Cn2nnc3ccccc32)cc1)N1CCC(O)(Cn2cnn3cccc3c2=O)CC1` and `O=C(c1ccc(Cn2cnc3ccccc32)cc1)N1CCC(O)(Cn2cnn3cccc3c2=O)CC1` are the same in IC50: 1 µM for the first, 1 µM for the second.

`C=C(C)C(=O)Nc1ccccc1-c1ccc(C(=O)N2CCC(O)(Cn3cnn4cccc4c3=O)CC2)cc1` and `O=C(c1ccccc1)c1ccc(C(=O)N2CCC(O)(Cn3cnn4cccc4c3=O)CC2)cc1` are the same in IC50: 1 µM for the first, 1 µM for the second.

`CN(C)C(=O)c1ccc(-c2cccc(C(=O)N3CCC(O)(Cn4cnn5cccc5c4=O)CC3)c2)cc1` and `NC(=O)c1ccc(-c2cccc(C(=O)N3CCC(O)(Cn4cnn5cccc5c4=O)CC3)c2)cc1` are the same in IC50: 1 µM for the first, 1 µM for the second.

`O=C(c1cccc(-c2ccccc2F)c1)N1CCC(O)(Cn2cnn3cccc3c2=O)CC1` and `Cc1ccccc1-c1cccc(C(=O)N2CCC(O)(Cn3cnn4cccc4c3=O)CC2)c1` are the same in IC50: 1 µM for the first, 1 µM for the second.

`CC(=O)Nc1cc2c(=O)n(CC3(O)CCN(C(=O)C[C@@H](C)c4ccccc4)CC3)cnn2c1` and `CNC(=O)Nc1cc2c(=O)n(CC3(O)CCN(C(=O)C[C@@H](C)c4ccccc4)CC3)cnn2c1` cannot be ordered by IC50: < 1 µM for the first, < 1 µM for the second.

First: Cn1c(-c2cccc(C(=O)N3CCC(O)(Cn4cnn5cccc5c4=O)CC3)c2)cc2ccccc21
Second: O=C(c1cccc(-c2ccc(Cl)cc2)c1)N1CCC(O)(Cn2cnn3cccc3c2=O)CC1
The IC50 of the first is lower: < 1 µM for the first, 1 µM for the second.

`C[C@H](CC(=O)N1CCC(O)(Cn2cnn3cccc3c2=O)CC1)c1ccccc1` and `CC(CC(=O)N1CCC(O)(Cn2cnn3cccc3c2=O)CC1)c1ccccc1` (centres undefined) cannot be ordered by IC50: < 0.2 µM for the first, < 1 µM for the second.

`O=C(c1ccc(Sc2ccccc2)cc1)N1CCC(O)(Cn2cnn3cccc3c2=O)CC1` and `O=C(c1ccc(S(=O)(=O)c2ccccc2)cc1)N1CCC(O)(Cn2cnn3cccc3c2=O)CC1` are the same in IC50: 1 µM for the first, 1 µM for the second.

`O=C(c1ccc(-c2ccc(C(=O)N3CCC(O)(Cn4cnn5cccc5c4=O)CC3)c(C3CCCC3)c2)cc1)N1CCCC1` and `O=C(c1ccc(-c2ccc(C(=O)N3CCC(O)(Cn4cnn5cccc5c4=O)CC3)c(Cl)c2)cc1)N1CCCCC1` are the same in IC50: 1 µM for the first, 1 µM for the second.

`O=C(c1cccc(-c2ccc3scnc3c2)c1)N1CCC(O)(Cn2cnn3cccc3c2=O)CC1` and `Cc1ccc2[nH]ncc2c1-c1cccc(C(=O)N2CCC(O)(Cn3cnn4cccc4c3=O)CC2)c1` are the same in IC50: 1 µM for the first, 1 µM for the second.

`CCN(c1ccccc1)c1ccc(C(=O)N2CCC(O)(Cn3cnn4cccc4c3=O)CC2)cc1` and `CC(C)(c1ccccc1)c1ccc(C(=O)N2CCC(O)(Cn3cnn4cccc4c3=O)CC2)cc1` are the same in IC50: 1 µM for the first, 1 µM for the second.

Compared with `Cc1cc2c(=O)n(CC3(O)CCN(C(=O)C(C)Cc4ccccc4)CC3)cnn2c1` (centres undefined), `CC(CC(=O)N1CCC(O)(Cn2cnn3cccc3c2=O)CC1)n1cccc1` (centres undefined) is lower in IC50: 1 µM for the first, < 0.2 µM for the second. The second is the more potent here.

`O=C(c1ccccc1)N1CCC(O)(Cn2cnn3c(-c4ccccc4)ncc3c2=O)CC1` and `O=C(c1cnc(C2CC2)o1)N1CCC(O)(Cn2cnn3c(-c4ccc(F)cc4)ncc3c2=O)CC1` are the same in IC50: 1 µM for the first, 1 µM for the second.

`O=C(c1ccc(-c2cccc(C(=O)N3CCC(O)(Cn4cnn5cccc5c4=O)CC3)c2)cc1)N1CCCC1` and `O=C(c1ccc(Cc2cccs2)cc1)N1CCC(O)(Cn2cnn3cccc3c2=O)CC1` are the same in IC50: 1 µM for the first, 1 µM for the second.

`Cc1ccc(OCC(=O)Nc2cc3c(=O)n(CC4(O)CCN(C(=O)C5CC5)CC4)cnn3c2)cc1C` and `O=C(c1ccc(Cn2ccnc2)cc1)N1CCC(O)(Cn2cnn3cccc3c2=O)CC1` are the same in IC50: 1 µM for the first, 1 µM for the second.

Molecular target: T1, Ubiquitin carboxyl-terminal hydrolase 7
Experiment: Inhibition of human USP7 using Ub-EKL as substrate

`O=C(Nc1ccc(NCCCN2CCOCC2)cc1)c1nnc(Sc2c(Cl)cncc2Cl)s1` and `CN(C)CCCNc1ccc(NC(=O)c2nnc(Sc3c(Cl)cncc3Cl)s2)cc1` cannot be ordered by EC50: < 1 µM for the first, < 1 µM for the second.

`O=C(Nc1cnc2ccccc2c1)c1nnc(Sc2c(Cl)cncc2Cl)s1` and `Cc1nc2ccc(NC(=O)c3nnc(Sc4c(Cl)cncc4Cl)s3)cc2s1` are the same in EC50: 1 µM for the first, 1 µM for the second.

`O=C(Nc1ccc2c(c1)S(=O)(=O)CC2NCCN1CCOCC1)c1nnc(Sc2c(Cl)cncc2Cl)s1` (centres undefined) and `CN(C)CCNC1CS(=O)(=O)c2cc(NC(=O)c3nnc(Sc4c(Cl)cncc4Cl)s3)ccc21` (centres undefined) cannot be ordered by EC50: < 1 µM for the first, < 1 µM for the second.

`CN(C)CCOc1cccc(NC(=O)c2nnc(Sc3c(Cl)cncc3Cl)s2)c1` and `CN(C)CCCOc1ccc(NC(=O)c2nnc(Sc3c(Cl)cncc3Cl)s2)cc1` cannot be ordered by EC50: < 1 µM for the first, < 1 µM for the second.

Going from `CN(C)CCCNC1CS(=O)(=O)c2cc(NC(=O)c3cnc(Sc4c(Cl)cncc4Cl)s3)ccc21` (centres undefined) to `CC1CS(=O)(=O)c2cc(NC(=O)c3cnc(Sc4c(Cl)cncc4Cl)s3)ccc21` (centres undefined), the EC50 rises from < 1 µM to 2 µM. The first is the more potent here.

Compared with `Cc1c(NC(=O)c2nnc(Sc3c(Cl)cncc3Cl)s2)ccc2c1S(=O)(=O)CC2`, `O=C(Nc1ccc2c(c1)S(=O)(=O)CC2)c1nnc(Sc2c(Cl)cncc2Cl)s1` is lower in EC50: 2 µM for the first, < 1 µM for the second.

Compared with `CN(C(=O)c1nnc(Sc2c(Cl)cncc2Cl)s1)c1ccc2c(c1)S(=O)(=O)C=C2`, `O=C(Nc1ccc2c(c1)S(=O)(=O)C=C2)c1nnc(Sc2c(Cl)cncc2Cl)s1` is lower in EC50: 1 µM for the first, < 1 µM for the second.

`CC(=O)c1cccc(NC(=O)c2nnc(Sc3c(Cl)cncc3Cl)s2)c1` and `CS(=O)(=O)c1cccc(NC(=O)c2nnc(Sc3c(Cl)cncc3Cl)s2)c1` are the same in EC50: 1 µM for the first, 1 µM for the second.

Compared with `O=C(Nc1ccc2c(c1)S(=O)(=O)C=C2)c1sc(Sc2c(Cl)cncc2Cl)nc1C(F)(F)F`, `O=C(Nc1ccc2c(c1)S(=O)(=O)C=C2)c1cnc(Sc2c(Cl)cncc2Cl)s1` is 2.5-fold lower in EC50: 5 µM for the first, 2 µM for the second. The second is the more potent here.

`CC1CS(=O)(=O)c2cc(NC(=O)c3nnc(Sc4c(Cl)cncc4Cl)s3)ccc21` (centres undefined) and `O=C(Nc1ccc2c(c1)C(=O)CC2)c1nnc(Sc2c(Cl)cncc2Cl)s1` are the same in EC50: 1 µM for the first, 1 µM for the second.

First: O=C(Nc1ccc2c(c1)S(=O)(=O)C=C2)c1nnc(Sc2c(Cl)cncc2Cl)o1
Second: O=C(Nc1ccc2c(c1)S(=O)(=O)C=C2)c1cnc(Sc2c(Cl)cncc2Cl)o1
The EC50 of the first is lower: < 1 µM for the first, > 10 µM for the second.

Going from `O=C(Nc1ccc2c(c1)S(=O)(=O)C=C2)c1nnc(Sc2c(Cl)cccc2Cl)s1` to `Nc1ncc(Cl)c(Sc2nnc(C(=O)Nc3ccc4c(c3)S(=O)(=O)C=C4)s2)c1Cl`, the EC50 falls from > 10 µM to 2 µM.

`CN(C)CCCOc1ccc(NC(=O)c2cnc(Sc3c(Cl)cncc3Cl)s2)cc1` and `CN(C)CCCOc1ccc(NC(=O)c2nnc(Sc3c(Cl)cncc3Cl)o2)cc1` cannot be ordered by EC50: > 10 µM for the first, > 10 µM for the second.

`CN(C)CC(O)COc1ccc(NC(=O)c2nnc(Sc3c(Cl)cncc3Cl)s2)cc1` (centres undefined) and `CN(C)CCCOc1ccc(NC(=O)c2nnc(Sc3c(Cl)cncc3Br)s2)cc1` cannot be ordered by EC50: < 1 µM for the first, < 1 µM for the second.

First: O=C(Nc1ccc2c(c1)S(=O)(=O)C=C2)c1cnc(Sc2ccncc2Cl)s1
Second: O=C(Nc1ccc2c(c1)S(=O)(=O)C=C2)c1nnc(Sc2c(Cl)cncc2Br)s1
The EC50 of the first is higher: 5 µM for the first, < 1 µM for the second.

First: COCCOCCN(C(=O)c1nnc(Sc2c(Cl)cncc2Cl)s1)c1ccc2c(c1)S(=O)(=O)CC2
Second: O=C(Nc1cccc(Cl)n1)c1nnc(Sc2c(Cl)cncc2Cl)s1
The EC50 of the first is higher: 2 µM for the first, < 1 µM for the second. The second is the more potent here.

`CNS(=O)(=O)c1ccc(NC(=O)c2nnc(Sc3c(Cl)cncc3Cl)s2)cc1` and `O=C(Nc1cnccn1)c1nnc(Sc2c(Cl)cncc2Cl)s1` cannot be ordered by EC50: < 1 µM for the first, < 1 µM for the second.

`O=C(Nc1ccc2c(c1)S(=O)(=O)C=C2)c1nnc(Sc2c(F)cncc2Cl)s1` showed an EC50 of 5 µM.
